Data: patent US11396016B2, “System and method for a biomimetic fluid processing” (The Brigham and Women's Hospital, Inc., priority 2013, dated 2022)

Tested on: MKs
Test: Shear-induced proPLT production and PLT release by MKs in the microfluidic device (live-cell microscopy)
Assay type: cell-based, mouse
Settings: for PLT release: under both static and physiological shear conditions; for shear-induced proPLT production: physiological shear
Description: Devices were coated with a 0.22 μm filtered 10% BSA solution (Millipore, Billerica, Mass.) for 30 minutes to prevent direct cell contact with glass. Primary MKs and media were infused in the first inlet 118 and second inlet 122, respectively, at a rate of 12.5 μL/hour using a two-syringe microfluidic pump (Harvard Apparatus, Holliston, Mass.). When the first outlet 120 is closed, both input solutions are redirected toward the second outlet 124 causing primary MKs to trap.
For shear cultures, MKs were loaded onto ‘naked’ microfluidic devices (only BSA-coated), and the infusion rate was doubled incrementally from 12.5 μL/hr to 200 μL/hr over a 2 hour period. For static cultures, isolated MKs were pipetted into chambers formed by mounting a glass coverslide coated with 3% BSA onto a […] with a 1 cm hole and cultured for 24 hours. Both static and shear cultures were maintained at 37 degrees C. and 5 percent CO2 and examined on a Zeiss Axiovert 200 (Carl Zeiss, Thornwood, N.Y.) equipped with 10× (numerical aperature, 0.30) Plan-Neofluar air objective. Differential interference contrast (DIC) images were obtained using CCD camera (Hamamatsu Photonics, Boston, Mass.) at either 2 second (shear cultures) or 20 minute (static cultures) intervals. Images were analyzed using the Metamorph version 7.7.2.0 image analysis software (Molecular Devices, Sunnyvale, Calif., USA) and ImageJ software version 1.47p. ProPLT extension rates were determined manually for over 200 MKs from at least three independent samples. For PLT spreading experiments, effluent was collected from microfluidic devices after 2 hours and pipetted into uncoated static culture chambers, described above. PLTs were permitted to contact glass by gravity sedimentation and spreading was captured at 5 second intervals over a 5 minute period.
In vivo BM MKs extend proPLTs in the direction of blood flow and release PLTs, proPLTs, large cytoplasmic fragments (prePLTs), and even whole MKs into sinusoidal blood vessels which may be trapping in the pulmonary microvascular bed, or otherwise maturing in the circulation. To determine the effect of physiological shear on PLT production, mouse fetal liver culture-derived (mFLC) MKs were isolated on culture day 4 and characterized by size and ploidy before being infused into the microfluidic device (shown in FIG. 3A).
While shear rates were kept constant, proPLT extension rates varied at different positions along the shaft, predictive of a regulated cytoskeletal driven mechanism of proPLT elongation (shown in FIG. 4C). […]

| SMILES | PLT release (1 mM EHNA) | shear-induced proPLT production (MKs incubated with 1 mM EHNA prior to infusion in microfluidic device) | PLT release (5 μM Jas) | shear-induced proPLT production (MKs incubated with 5 μM Jas prior to infusion in microfluidic device) |
| --- | --- | --- | --- | --- |
| CCCCCC[C@@H]([C@@H](C)O)n1cnc2c(N)ncnc21 (racemic) [EHNA] | inhibited | inhibit |  |  |
| C/C1=C\[C@H](C)C[C@H](C)OC(=O)C[C@H](c2ccc(O)cc2)NC(=O)[C@@H](Cc2c(Br)[nH]c3ccccc23)N(C)C(=O)[C@H](C)NC(=O)[C@@H](C)C1 [Jas, Jasplankinolide] |  |  | inhibited | inhibit |
